The results in this text go back to the OligoGym collection.

Bases are written 5' to 3'; sugars and linkages follow in the same order, as letters with counts (s phosphorothioate, o phosphodiester; PS: all linkages phosphorothioate). The collection does not say whether C is 5-methylated. l = locked nucleic acid (LNA); d = 2'-deoxy (DNA)

The target in this data set is Tau. Kind of data set: rat primary cortical neurons, FLIPR, 25 uM ASO.
As to “AATCCATTTATATTCTTTTA (sugars l4 d12 l4, PS)”, the calcium oscillation score is 38.5 % of control.

For “AATCCCAGTTTCCCCCA (sugars l4 d11 l2, PS)”, the calcium oscillation score was 65.6 % of control.

As to AATCCTGTGCTTCA (sugars l3 d8 l3, PS), the calcium oscillation score was 9.58 % of control.

On to AATCCTGTGCTTCAG (sugars l3 d9 l3, PS), for which the calcium oscillation score is 57.5 % of control.

On to AATCCTGTGCTTCAGG (sugars l3 d10 l3, PS), for which the calcium oscillation score is 73 % of control.

Turning to “AATCCTTAATTTAACCACAT (sugars l4 d13 l3, PS)”, the calcium oscillation score was 56.8 % of control.

For “AATGTCCAAAAATCCCC (sugars l2 d11 l4, PS)”, the calcium oscillation score was 53 % of control.

Turning to AATTAAATTTCTCCCTG (sugars l4 d9 l4, PS), the calcium oscillation score was 34.1 % of control.

For the sequence “AATTAACATATTTTTACCT (sugars l4 d11 l4, PS)”, the calcium oscillation score was 75.1 % of control.

As to AATTAACCGAACTGCG (sugars l3 d10 l3, PS), the calcium oscillation score is 186 % of control.

Regarding AATTAGTCACATACCA (sugars l4 d8 l4, PS), the calcium oscillation score was 85 % of control.

Turning to “AATTATTAAATCTTCTCTTA (sugars l4 d12 l4, PS)”, the calcium oscillation score was 62.6 % of control.

As for AATTATTTACACTGTCC (sugars l4 d9 l4, PS), the calcium oscillation score is 55.6 % of control.

As for “AATTCACACAACAAACTAT (sugars l4 d11 l4, PS)”, the calcium oscillation score was 74.5 % of control.

Regarding “AATTCATAAATGACTATACT (sugars l3 d14 l3, PS)”, the calcium oscillation score was 40.3 % of control.

As to “AATTCATTTAATTCTCTTCT (sugars l4 d12 l4, PS)”, the calcium oscillation score was 86.6 % of control.

Turning to “AATTTACACCCAAACCTA (sugars l2 d12 l4, PS)”, the calcium oscillation score was 81.9 % of control.

Take “AATTTACACCCAAACCTAA (sugars l4 d11 l4, PS)”: the calcium oscillation score was 106 % of control.

Regarding AATTTAGTCACCATCA (sugars l4 d8 l4, PS), the calcium oscillation score was 62.1 % of control.

AATTTAGTCACCATCAC (sugars l4 d9 l4, PS): the calcium oscillation score is 79.1 % of control.

Regarding “AATTTATTAATTCATAAATG (sugars l3 d14 l3, PS)”, the calcium oscillation score is 38.3 % of control.

For AATTTCACCCTCAGTA (sugars l3 d10 l3, PS), the calcium oscillation score was 73 % of control.

As for “AATTTCAGAGCAAAGTGACC (sugars l3 d14 l3, PS)”, the calcium oscillation score was 2.38 % of control.

Take AATTTCTCTAATTGTCC (sugars l4 d9 l4, PS): the calcium oscillation score is 69 % of control.

With “AATTTGGAAAGATGAAATTT (sugars l3 d14 l3, PS)”, the calcium oscillation score is 0 % of control.

As for “ACAAACAATCCATTTATAT (sugars l4 d11 l4, PS)”, the calcium oscillation score was 46.2 % of control.

Consider “ACAAACATCTAAACACCTCA (sugars l2 d14 l4, PS)”, for which the calcium oscillation score is 72.6 % of control.

Regarding “ACAAACCAACTCAACATTAC (sugars l4 d12 l4, PS)”, the calcium oscillation score is 84.6 % of control.

As to “ACAAACCAGTTACCATC (sugars l3 d10 l4, PS)”, the calcium oscillation score was 87.7 % of control.

In the case of “ACAACAAACATCTAAACACC (sugars l3 d13 l4, PS)”, the calcium oscillation score is 84.5 % of control.

Turning to “ACAATTCTCAGCACACC (sugars l2 d11 l4, PS)”, the calcium oscillation score was 48.8 % of control.

Regarding “ACACCATCCAAGTCAAT (sugars l3 d10 l4, PS)”, the calcium oscillation score is 16.2 % of control.

As to “ACACCTCGTCAGCTAGCGTG (sugars l3 d14 l3, PS)”, the calcium oscillation score is 0 % of control.

“ACACTGTCCTTTAAACA (sugars l4 d10 l3, PS)”: the calcium oscillation score was 68.1 % of control.

In the case of ACACTGTCGTCGAATG (sugars l3 d10 l3, PS), the calcium oscillation score is 9.52 % of control.

For “ACAGATATTCATTCCCT (sugars l4 d11 l2, PS)”, the calcium oscillation score is 44.2 % of control.

For the sequence “ACAGCCATTTTCCATAT (sugars l3 d11 l3, PS)”, the calcium oscillation score was 59.3 % of control.

In the case of ACAGCCTCATAAACCT (sugars l4 d10 l2, PS), the calcium oscillation score is 66.8 % of control.
